How the values were obtained:
Candida albicans = assay: Antifungal activity against azole-resistant Candida albicans 99-788; assay type: functional, organism-based
CCRF-CEM = assay: Cytotoxicity against human CEM cells after 96 hrs; assay type: functional, cell-based
in vitro = details: human
Description: Therapeutic index, IC50 for human CEM cells to IC 50 for azole-resistant Candida albicans 99-788

[1] = CEM cells (versus azole-resistant Candida albicans 99-788)

SMILES | IC50 (Candida albicans) [µM] | IC50 (CCRF-CEM) [µM] | selectivity ratio (in vitro; [1]) | selectivity ratio (in vitro; ccrf-cem)
COC1=CC(=O)C[C@@H](C)[C@]12Oc1c(Cl)c(OC)cc(OC)c1C2=O [GRISEOFULVIN] | > 28 | 10 |  | 
CON1C(=O)[C@H]2NC(=O)[C@]13Oc1cc(O)c(Cl)cc1[C@@H]3SS2 [ASPIROCHLORINE] | 0.028 | 0.58 | 20 | 
C[C@@H]1[C@H](O)[C@@H](C)/C=C/C=C/C=C/C=C/C=C/C=C/C=C/[C@H](O[C@@H]2O[C@H](C)[C@@H](O)[C@H](N)[C@@H]2O)C[C@@H]2O[C@](O)(C[C@@H](O)C[C@@H](O)[C@H](O)CC[C@@H](O)C[C@@H](O)CC(=O)O[C@H]1C)C[C@H](O)[C@H]2C(=O)O [AMPHOTERICIN B] | 0.16 | 160 |  | 1000
CON1C(=O)C2NC(=O)[C@@]13Oc1cc(O)c(Cl)cc1[C@@H]3SSSS2 [TETRATHIOASPIROCHLORINE] | 0.083 | 4.2 | 50 | 
CC(C)C[C@@H]1C(=O)N[C@@H](Cc2c[nH]c3ccccc23)C(=O)N1C | > 31 | > 31 |  | 
CN1C(=O)[C@]23CC4=CC=C[C@H](O)[C@H]4N2C(=O)[C@@]1(CO)SS3 [GLIOTOXIN] | 3.1 | 0.15 |  | 

Reference: ChEMBL document CHEMBL1141795, “Aspirochlorine class compounds from Aspergillus flavus inhibit azole-resistant Candida albicans” (J Nat Prod, 2005)
